Source: patent publication US9115101B2 (Genentech, Inc., priority 2012, dated 2015)
Read-outs that look alike come from different tables or passages of the source.

Target: T1, RORc ligand binding domain (Homo sapiens, UniProt P51449)
T1 construct: host or cells: E. coli
T1 sequence (P51449 269-508 limits assumed): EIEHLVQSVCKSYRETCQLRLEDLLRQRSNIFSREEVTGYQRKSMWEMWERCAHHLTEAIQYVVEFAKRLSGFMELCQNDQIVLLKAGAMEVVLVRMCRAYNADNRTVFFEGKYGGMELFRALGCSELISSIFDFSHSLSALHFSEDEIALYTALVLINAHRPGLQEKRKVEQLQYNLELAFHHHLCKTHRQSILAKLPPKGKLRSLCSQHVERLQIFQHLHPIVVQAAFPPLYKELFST
Assay: In Vitro RORc Ligand Binding Assay (25-[3H]hydroxycholesterol radioligand filtration)
Details: read-out: RORc IC50

[1] = In Vitro RORc Ligand Binding Assay, Table 4

Row | SMILES | IC50 [1] | IC50
1 | C[C@H](O)C(=O)N1CCN(c2ccc(CN3CCCCC(c4ccccc4)S3(=O)=O)c(F)c2)CC1 (single isomer, unassigned) [Example 304, 1-{4-[4-(1,1-Dioxo-7-phenyl-[1,2]thiazepan-2-ylmethyl)-3-fluoro-phenyl]-piperazin-1-yl}-2-hydroxy-propan-1-one] | 38 nM | –
2 | CC(=O)NCCC1CCN(C(=O)c2ccc(CN3[C@@H](C)CCC(c4ccccc4)S3(=O)=O)cc2)CC1 (stereo partly drawn) [Example 359, N-(2-{1-[4-((3S)-Methyl-1,1-dioxo-6-phenyl-[1,2]thiazinan-2-ylmethyl)-benzoyl]-piperidin-4-yl}-ethyl)-acetamide] | 2030 nM | –
3 | CC(=O)N1CCN(c2ccc(CN3CC4(COC4)CC(c4ccccc4)S3(=O)=O)c(F)c2)CC1 (single isomer, unassigned) [Example 258, 1-(4-(4-((7,7-dioxido-8-phenyl-2-oxa-7-thia-6-azaspiro[3.5]nonan-6-yl)methyl)-3-fluorophenyl)piper-azin-1-yl)ethanone] | 1040 nM | –
4 | CNC(=O)[C@H]1CN(C(C)=O)CCN1c1ccc(CN2[C@@H](C)CCC(c3ccccc3)S2(=O)=O)c(F)c1 (stereo partly drawn) [Example 435, (R)-4-Acetyl-1-[3-fluoro-4-((3S)-methyl-1,1-dioxo-6-phenyl-[1,2]thiazinan-2-ylmethyl)-phenyl]-piperazine-2-carboxylic acid methylamide] | – | 244 nM
5 | C[C@H]1CCC(c2ccccc2)S(=O)(=O)N1Cc1ccc(N2CCn3cncc3C2)cc1F (single isomer, unassigned) [Example 155] | 175 nM | –
6 | C[C@H]1CCC(c2ccccc2)S(=O)(=O)N1Cc1ccc(NC(=O)C2CN(S(C)(=O)=O)C2)cc1F (stereo partly drawn) [Example 458, 1-Methanesulfonyl-azetidine-3-carboxylic acid [3-fluoro-4-((3S)-methyl-1,1-dioxo-6-phenyl-[1,2]thiazinan-2-ylmethyl)-phenyl]-amide] | – | 98 nM
7 | CS(=O)(=O)N1CCC(Nc2ccc(CN3CCCCC(c4ccccc4)S3(=O)=O)cc2)CC1 (single isomer, unassigned) [Example 324, [4-(1,1,-Dioxo-7-phenyl-[1,2]thiazepan-2-ylmethyl)-phenyl]-(1-methanesulfonyl-piperidin-4-yl)-amine] | 3 nM | –
8 | C[C@H]1CCC(c2ccccc2)S(=O)(=O)N1Cc1ccc(N2CCC(c3ncon3)CC2)cc1F (stereo partly drawn) [Example 235, 2-[2-Fluoro-4-(4-[1,2,4]oxadiazol-3-yl-piperidin-1-yl)-benzyl]-(3S)-methyl-6-phenyl-[1,2]thiazinane 1,1-dioxide] | 40 nM | –
9 | C[C@H]1CCC(c2ccccc2)S(=O)(=O)N1Cc1ccc(N2CCN(c3cnccn3)CC2)cc1F (stereo partly drawn) [Example 441, 4-[3-Fluoro-4-((3S)-methyl-1,1-dioxo-6-phenyl-[1,2]thiazinan-2-ylmethyl)-phenyl]-3,4,5,6-tetrahydro-2H-[1,2′]bipyrazinyl] | – | 171 nM
10 | C[C@H]1CCC(c2ccccc2)S(=O)(=O)N1Cc1ccc(NC2CCN(S(C)(=O)=O)CC2)cc1F (single isomer, unassigned) [Example 167] | 9 nM | –
11 | C[C@H]1CCC(c2ccccc2)S(=O)(=O)N1Cc1ccc(OC2CCN(S(C)(=O)=O)CC2)cc1 (single isomer, unassigned) [Example 45] | 22 nM | –
12 | C[C@H]1CCC(c2ccccc2)S(=O)(=O)N1Cc1ccc(N2CCN(C3=CC(=O)CC3)CC2)cc1F (stereo partly drawn) [Example 123, 3-{4-[3-Fluoro-4-((3S)-3-methyl-1,1-dioxo-6-phenyl-[1,2]thiazinan-2-ylmethyl)-phenyl]-piperazin-1-yl}-cyclopent-2-enone] | 89 nM | –
13 | C[C@H]1CCC(c2ccccc2)S(=O)(=O)N1Cc1ccc(N2C[C@@H]3[C@H](C2)[C@H]3n2cnnc2)cc1F (stereo partly drawn) [Example 440, (1R,5S,6S)-3-[3-Fluoro-4-((3S)-methyl-1,1-dioxo-6-phenyl-[1,2]thiazinan-2-ylmethyl)-phenyl]-6-[1,2,4]triazol-4-yl-3-aza-bicyclo[3.1.0]hexane] | – | 12 nM
14 | C[C@H]1CCC(c2ccccc2)S(=O)(=O)N1Cc1ccc(C(=O)N[C@@H]2CCN(C(N)=O)C2)cc1 (stereo partly drawn) [Example 391, (R)-3-[4-((3S)-Methyl-1,1-dioxo-6-phenyl-[1,2]thiazinan-2-ylmethyl)-benzoylamino]-pyrrolidine-1-carboxylic acid amide] | 3430 nM | –
15 | C[C@@H](O)C(=O)N1CCN(c2ccc(CN3CCCCC(c4ccccc4)S3(=O)=O)cc2)CC1 (single isomer, unassigned) [Example 315, 1-{4-[4-(1,1-Dioxo-7-phenyl-[1,2]thiazepan-2-ylmethyl)-phenyl]-piperazin-1-yl}-2-hydroxy-propan-1-one] | 321 nM | –
16 | C[C@H]1CCC(c2ccccc2)S(=O)(=O)N1Cc1ccc(C(=O)NC2(C#N)CCC2)cc1 (stereo partly drawn) [Example 369, N-(1-Cyano-cyclobutyl)-4-((3S)-methyl-1,1-dioxo-6-phenyl-[1,2]thiazinan-2-ylmethyl)-benzamide] | 3480 nM | –
17 | C[C@H]1CCC(c2ccccc2)S(=O)(=O)N1Cc1ccc(C(=O)N2CCS(=O)(=O)CC2)cc1 (stereo partly drawn) [Example 398, (1,1-Dioxo-1-thiomorpholin-4-yl)-[4-((3S)-methyl-1,1-dioxo-6-phenyl-[1,2]thiazinan-2-ylmethyl)-phenyl]-methanone] | 5710 nM | –

Continued, values first:

Row | IC50 [1] | IC50 | SMILES
18 | 247 nM | – | CC(=O)N1CCN(c2ccc(CN3CCCC(c4ccccc4)S3(=O)=O)c(F)c2)CC1 (single isomer, unassigned) [Example 1]
19 | 403 nM | – | CC(=O)N1CCN(c2ccc(CN3CC(C)CC(c4ccccc4)S3(=O)=O)c(F)c2)CC1 (single isomer, unassigned) [Example 68, 1-{4-[3-Fluoro-4-(4-methyl-1,1-dioxo-6-phenyl-[1,2]thiazinan-2-ylmethyl)-phenyl]-piperazin-1-yl}-ethanone]
20 | 14 nM | – | CC(=O)N1CCN(c2ccc(CN3[C@@H](C)CCC(c4ccc(F)cc4)S3(=O)=O)c(F)c2)CC1 (single isomer, unassigned) [Example 121]
21 | 522 nM | – | CC(=O)N1CCN(c2ccc(CN3[C@@H](C)CCC(c4ccccc4)S3(=O)=O)c(F)c2)C[C@H]1C(N)=O (stereo partly drawn) [Example 381, (S)-1-Acetyl-4-[3-fluoro-4-((3S)-methyl-1,1-dioxo-6-phenyl-[1,2]thiazinan-2-ylmethyl)-phenyl]-piperazine-2-carboxylic acid amide]
22 | 52 nM | – | CC(=O)N1CCN(c2ccc(CN3[C@@H](C)CC[C@@H](c4ccccc4Cl)S3(=O)=O)c(F)c2)CC1 (single isomer, unassigned) [Example 204]
23 | 54 nM | – | CC(=O)N1CCN(c2ccc(CN3CC(C)CCC(c4ccccc4)S3(=O)=O)c(F)c2)CC1 (single isomer, unassigned) [Example 340, 1-{4-[3-Fluoro-4-(4-methyl-1,1-dioxo-7-phenyl-[1,2]thiazepan-2-ylmethyl)-phenyl]-piperazin-1-yl}-ethanone]
24 | 5 nM | – | CC(=O)N1CCN(c2ccc(CN3CC(C)CCC(c4ccccc4)S3(=O)=O)c(F)c2)CC1 (single isomer, unassigned) [Example 334, 1-{4-[3-Fluoro-4-(4-methyl-1,1-dioxo-7-phenyl-[1,2]thiazepan-2-ylmethyl)-phenyl]-piperazin-1-yl}-ethanone]
25 | 49 nM | – | C=C1CCC(c2ccccc2)S(=O)(=O)N(Cc2ccc(N3CCN(C(C)=O)CC3)cc2F)C1 (stereo not shown) [Example 348, 1-{4-[3-Fluoro-4-(4-methylene-1,1-dioxo-7-phenyl-[1,2]thiazepan-2-ylmethyl)-phenyl]-piperazin-1-yl}-ethanone]
